Results as given in patent publication US20040142888A1, “Modulators of RabGGT and methods of use thereof” (priority 2002, published 2004).
Where two headings read alike, the source gives them in different places.

Key:
[1] = target: T1, rat RabGGT (Rattus norvegicus, UniProt Q08602+Q08603); test: RabGGT filter binding assay: transfer of (3H)geranylgeranyl from 3H-GGPP to recombinant Rab3A; type: biochemical; conditions: for IC90/IC50: RabGGT inhibition; for RabGGT inhibition: rat RabGGT enzyme
T1 construct: purchased Calbiochem 345855; host or cells: Sf9/baculovirus
T1 sequence (Q08602 1-567): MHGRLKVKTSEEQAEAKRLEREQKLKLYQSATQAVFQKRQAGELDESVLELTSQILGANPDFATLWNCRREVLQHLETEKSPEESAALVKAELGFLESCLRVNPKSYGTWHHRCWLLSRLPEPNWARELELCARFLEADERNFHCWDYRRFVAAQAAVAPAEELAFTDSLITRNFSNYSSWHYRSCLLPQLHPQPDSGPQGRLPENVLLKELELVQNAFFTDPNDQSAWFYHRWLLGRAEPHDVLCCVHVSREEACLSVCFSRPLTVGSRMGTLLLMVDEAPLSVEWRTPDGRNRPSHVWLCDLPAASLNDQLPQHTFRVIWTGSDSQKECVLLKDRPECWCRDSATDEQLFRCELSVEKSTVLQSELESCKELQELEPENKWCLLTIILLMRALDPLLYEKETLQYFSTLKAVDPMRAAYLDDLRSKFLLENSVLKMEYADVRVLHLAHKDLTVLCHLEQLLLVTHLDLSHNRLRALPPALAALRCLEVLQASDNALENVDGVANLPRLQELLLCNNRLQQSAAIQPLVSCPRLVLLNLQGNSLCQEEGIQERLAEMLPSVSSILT
T1 sequence (Q08603 1-331): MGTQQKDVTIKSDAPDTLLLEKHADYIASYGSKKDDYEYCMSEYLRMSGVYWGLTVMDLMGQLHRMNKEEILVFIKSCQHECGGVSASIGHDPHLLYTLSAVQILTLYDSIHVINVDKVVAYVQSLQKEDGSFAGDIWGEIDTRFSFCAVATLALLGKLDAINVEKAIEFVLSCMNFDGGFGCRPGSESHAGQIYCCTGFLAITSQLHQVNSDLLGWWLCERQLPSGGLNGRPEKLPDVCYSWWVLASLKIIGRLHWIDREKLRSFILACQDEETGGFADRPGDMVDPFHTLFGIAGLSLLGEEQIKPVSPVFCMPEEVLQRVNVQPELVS
Description: The effect of compounds 7A through 7T on RabGGT activity was quantified using a filter binding assay that measures the transfer of (3H) geranylgeranyl groups (GG) from all-trans-(3H)geranylgeranyl pyrophosphate (3H-GGPP) to recombinant Rab3A protein (Shen & Seabra, 1996, JBC, 271 :3692; Armstrong et al., 1996, Methods in Enzymology 257:30). Modifications to published protocols are noted explicitly below.
Recombinant rat RabGGT, expressed using the Sf9/baculovirus system, was purchased from Calbiochem (cat. no. 345855). Recombinant unprenylated human Rab3A was obtained from Panvera.(cat. no. P2173). Human REβ-1, expressed in Sf9 cells, was obtained from Calbiochem (cat. no. 554000). Tritium labeled geranylgeranyl pyrophosphate was purchased from Amersham Pharmacia Biotech (15 Ci/mmol). Unlabeled GGPP was purchased from Sigma (cat. no. G-6025).
The reaction buffer contained 50 mM HEPES pH7.4, 5 mM MgCl2, 1 mM DTT, 1 mM Nβ-40. Solutions of RabGGT, Rab3A, REP-1, and GGPP were prepared in this reaction buffer. Final protein concentrations in the reaction mixture were modified from the published protocols, with the standard reaction mixture containing 2 μM Rab3A, 0.2 μM REP-1, 5 μM unlabeled GGPP, 0.5 μM labeled GGPP, and 10-50 nM RabGGT in a total volume of 20 μl. The specific activity of (3H)GGPP used in the assay was 3000 dpm/pmol.
Compounds were prepared as 50 mM stocks in DMSO and diluted to give an appropriate concentration for the assay as a 20% DMSO stock. 2 μl of the diluted compound stock was added to a 20 μl reaction to give a final DMSO concentration of 2% in the assay.
The order of addition of reagents was altered from the published protocols. Reaction mixtures were prepared by sequentially adding Rab3A and REP-1 proteins to the reaction buffer, followed by compound and RabGGT enzyme to a volume of 18 μl. Reactions were initiated by the addition of 2 μl of a solution that contained unlabeled and labeled GGPP. After a 30 minute incubation at 37° C., 1 ml of stop solution (1 volume of concentrated HCl acid with 9 volumes of ethanol) was added and mixed. The solution was then incubated at room temperature for 1 hour to completely precipitate proteins.
The precipitate was collected by vacuum filtration using a vacuum filtration manifold (Millipore model 1225) onto 25 mm GF/A filters (Whatman) that were prewetted with ethanol. The tubes were rinsed twice with 1 ml ethanol which was also poured over the filters. Each filter was subsequently washed three times with 2 mls of ethanol per wash, dried under vacuum, and then put in scintillation vials. Four milliliters of scintillation fluid was added and the radioactivity was quantified on a scintillation counter. Several types of blank reactions were conducted including withholding the enzyme, the substrate, or the accessory protein REP-1, or replacing the compound solution with a 20% DMSO solution. For the substrate titration experiment, the equimolar amounts of Rab3A and REP-1 were mixed and preincubated for 30 min at room temperature before addition of the enzyme.
The data was analyzed by non-linear regression analysis methods using the program PRIZM (GraphPad Software, Inc.). Inhibition constants were obtained by analyzing the data using the one site competition equation provided by the software. FIG. 7 presents a typical data series obtained for compound 7B using these methods.

[2] = target: Farnesyl Transferase (FT) (Homo sapiens, UniProt P49354+P49356); test: Biochemical assay for inhibition of farnesyl transferase (FT)
Experimental: Biochemical assays for inhibition of FT were performed as described by Mann et al. (1995, Drug Dev. Res. 34: 121) with the modifications described by Ding et al. (1999, J. Med. Chem., 42:5241)

[3] = system: HCT-116 human colon tumor cells; test: Compound-induced apoptosis in HCT-116 human colon tumor cells (microscopy for morphological markers); type: cell-based
Experimental: HCT-116 human colon tumor cells obtained from the American Type Culture Collection (ATCC) were grown in McCoy's 5A culture medium with 10% heat inactivated FBS, 1× penicillin/streptomycin, and 25 mM HEPES, in an incubator maintained at 37° C. with CO2 at 6-7% and humidity at 95%. Cells were treated with compounds using a dose range from 0.04 μM to 100 μM. After 48 hours they were examined by microscopy for signs of cell rounding, vaccuolation, and nuclear condensation. These are morphological markers associated with apoptosis, and are consistent with results obtained by performing an assay for nucleosomal DNA, or a TdT-mediated dUTP nick end labeling (TUNEL) assay.
The concentrations cited are the minimal concentration required to induce these morphological changes in 50% of the treated cells.

[4] = recombinant rat RabGGT, Rab3A, REP-1, 30 minute at 37° C.
[5] = HCT-116, 48 h, HCT116 cells, 48 hours, minimal concentration inducing apoptotic morphological changes in 50% of treated cells, read-out: 50% APOPTOTIC
[6] = HCT-116, minimum concentration required to achieve apoptosis of 50% of the HCT116 cells (Table 7), read-out: HCT116 50% apoptosis
[7] = HCT-116, minimum concentration required to achieve apoptosis of 50% of the HCT116 cells (Table 8), read-out: HCT116 50% apoptosis

| SMILES | IC90/IC50 [1] | IC50 ([1]; Table 7) | IC90 ([1]; Table 7) | RabGGT inhibition [1] | IC50 [1, 4] | IC90 [1, 4] | IC50 [2] | IC90 [2] | EC50 [3, 5] | EC50 [3, 6] | EC50 [3, 7] |
| --- | --- | --- | --- | --- | --- | --- | --- | --- | --- | --- | --- |
| Cc1nc(CN(C2Cc3cc(C#N)ccc3N(Cc3cncn3C)C2)S(=O)(=O)c2ccccn2)cs1 (stereo not shown) [Compound 7T] | >10 | 1430 nM | > 15000 nM | weaker inhibitors | 1430 nM | > 15000 nM | 3.7 nM | 48 nM | 90000 nM | 90000 nM | 90000 nM |
| C=C(C)CN(C1Cc2cc(C#N)ccc2N(Cc2cncn2C)C1)S(=O)(=O)N1CC=CC1 (stereo not shown) [Compound 7O] | 19 | 58 nM |  |  | 58 nM | 1120 nM | 1.4 nM | 8 nM | 10000 nM | 10000 nM | 10000 nM |
| Cn1cc(S(=O)(=O)N(Cc2ccsc2)C2Cc3cc(C#N)ccc3N(Cc3cncn3C)C2)cn1 (stereo not shown) [Compound 7N] | 12 | 25 nM |  |  | 25 nM | 309 nM | 0.7 nM | 9 nM | 3700 nM | 3300 nM | 3300 nM |
| Cn1cncc1CN1CC(N(Cc2ccsc2)S(=O)(=O)c2ccccn2)Cc2cc(C#N)ccc21 (stereo not shown) [Compound 7P] |  | 84 nM |  |  | 84 nM | 2160 nM | 0.7 nM | 4 nM | 25000 nM | 25000 nM | 25000 nM |

Continued by falling IC50 ([1]; Table 7), values first:

| IC90/IC50 [1] | IC50 ([1]; Table 7) | IC90 ([1]; Table 7) | RabGGT inhibition [1] | IC50 [1, 4] | IC90 [1, 4] | IC50 [2] | IC90 [2] | EC50 [3, 5] | EC50 [3, 6] | EC50 [3, 7] | SMILES |
| --- | --- | --- | --- | --- | --- | --- | --- | --- | --- | --- | --- |
| 19 | 541 nM |  | weaker inhibitors | 541 nM | 10100 nM | 1.5 nM | 9 nM | 30000 nM | 30000 nM | 30000 nM | Cn1cncc1CN1CC(N(CC(=O)OC(C)(C)C)S(=O)(=O)c2ccccn2)Cc2cc(C#N)ccc21 (stereo not shown) [Compound 7R] |
| 19 | 73 nM |  |  | 73 nM | 1400 nM | 15.5 nM | 255 nM | 50000 nM | 50000 nM | 50000 nM | Cn1cncc1CN1CC(NS(=O)(=O)c2ccccn2)Cc2cc(C#N)ccc21 (stereo not shown) [Compound 7S] |
|  | 47 nM |  |  | 47 nM | 2300 nM | 0.6 nM | 6 nM | 30000 nM | 30000 nM | 30000 nM | Cn1cnc(S(=O)(=O)N(Cc2ccsc2)C2Cc3cc(C#N)ccc3N(Cc3cncn3C)C2)c1 (stereo not shown) [Compound 7Q] |
